Data from US10342804B2, “Steroid compound for use in the treatment of hepatic encephalopathy” (Umecrine Cognition AB, priority 2014, dated 2019).

How the values were obtained:
[1] = biological target: T1, human α5β3γ2L GABAA receptors (Homo sapiens, UniProt P28472+P31644); test: Whole-cell voltage-clamp electrophysiology, HEK-293 cells expressing α5β3γ2L GABAA receptors; assay type: cell-based; conditions: α5β3γ2L expressing cells
T1 construct: expressed in transfected cells; host or cells: HEK-293, permanently transfected
T1 sequence (P31644 32-462): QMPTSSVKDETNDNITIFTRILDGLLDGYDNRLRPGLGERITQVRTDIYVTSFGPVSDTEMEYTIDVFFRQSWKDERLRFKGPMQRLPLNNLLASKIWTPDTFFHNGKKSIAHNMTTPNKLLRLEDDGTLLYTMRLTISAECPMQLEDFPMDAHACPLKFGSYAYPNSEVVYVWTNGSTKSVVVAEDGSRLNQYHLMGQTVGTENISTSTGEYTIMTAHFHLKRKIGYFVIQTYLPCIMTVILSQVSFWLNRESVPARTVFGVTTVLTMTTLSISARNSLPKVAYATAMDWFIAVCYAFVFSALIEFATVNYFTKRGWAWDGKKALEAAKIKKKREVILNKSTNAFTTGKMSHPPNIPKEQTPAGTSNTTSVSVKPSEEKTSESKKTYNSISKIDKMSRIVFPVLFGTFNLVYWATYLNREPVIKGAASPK
T1 sequence (P28472 26-473): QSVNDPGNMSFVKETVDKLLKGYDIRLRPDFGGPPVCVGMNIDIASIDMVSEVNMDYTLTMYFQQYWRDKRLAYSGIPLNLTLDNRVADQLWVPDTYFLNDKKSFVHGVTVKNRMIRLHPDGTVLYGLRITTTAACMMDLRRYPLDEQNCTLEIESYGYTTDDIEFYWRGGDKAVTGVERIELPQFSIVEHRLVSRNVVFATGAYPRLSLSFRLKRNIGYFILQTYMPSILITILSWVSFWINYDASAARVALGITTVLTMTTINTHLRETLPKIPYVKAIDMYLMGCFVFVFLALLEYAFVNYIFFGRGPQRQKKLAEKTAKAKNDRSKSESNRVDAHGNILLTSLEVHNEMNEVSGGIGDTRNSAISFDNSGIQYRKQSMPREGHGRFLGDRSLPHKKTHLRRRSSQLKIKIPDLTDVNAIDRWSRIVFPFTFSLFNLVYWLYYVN
T1 sequence (P18507 40-475 partner): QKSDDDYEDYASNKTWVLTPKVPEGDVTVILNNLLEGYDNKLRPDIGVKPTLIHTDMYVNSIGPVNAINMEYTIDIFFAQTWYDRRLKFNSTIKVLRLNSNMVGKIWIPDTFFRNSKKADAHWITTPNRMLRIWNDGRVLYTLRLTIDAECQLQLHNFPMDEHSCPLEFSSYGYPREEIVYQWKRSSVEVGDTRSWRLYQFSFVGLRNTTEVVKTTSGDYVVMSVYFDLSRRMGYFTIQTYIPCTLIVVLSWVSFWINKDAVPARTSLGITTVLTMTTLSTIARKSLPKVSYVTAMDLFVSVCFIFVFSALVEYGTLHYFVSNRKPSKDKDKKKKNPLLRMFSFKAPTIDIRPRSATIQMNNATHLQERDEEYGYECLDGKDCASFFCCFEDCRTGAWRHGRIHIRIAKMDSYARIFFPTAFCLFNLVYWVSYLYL
Experimental: (§1) For electrophysiology measurements the Dynaflow® system with the Resolve chip was used (Cellectricon, Göteborg, Sweden). HEK-293 cells were permanently transfected with vectors including the human CMV promoter for constitutive expression of the human α5, β3, and γ2L GABAA receptor subunits (α5β3γ2L) or the human α1, β2, and γ2L GABAA receptor subunits (α1β2γ2L). The cell lines used were selected for good reactivity to GABA and to THDOC. Before measurements cells were incubated for 15 min at 37° C. in 95% air+5% CO2 in extracellular solution (EC) containing the following: 137 mM NaCl, 5.0 mM KCl, 1.0 mM CaCl2, 1.2 mM MgCl2, 10 mM HEPES, and 10 mM glucose, 0.1% DMSO pH 7.4. Thereafter, detached cells were added to the EC solution in the Dynaflow chip bath.
(§2) Whole-cell voltage-clamp recordings were made at room temperature (21-23° C., −17 mV with compensation for liquid junction potential as in Haage et al., 2002; Neher, 1992). Command pulses were generate and data collected by PClamp 9.0 software, DigiData 1322A converter, and AxonPatch 200B (Axon Instruments, Foster City, Calif.). Patch electrodes (2-6 MΩ) were filled with intracellular solution (IC) including: 140 mM Cs-gluconate, 3.0 mM NaCl, 1.2 mM MgCl2, 10 mM HEPES, 1.0 mM EGTA, 2 mM Mg-ATP, 0.1% DMSO, pH 7.2.
(§3) THDOC and 3α-ethynyl-3β-hydroxyandrostan-17-one oxime were dissolved in dimethyl sulfoxide (DMSO) and thereafter diluted with EC solution to include 0.1% DMSO.
(§4) Different protocols were used for different electrophysiology measurements. As α1β2γ2L-GABAA receptors in vivo are present within the synapse a condition resembling that situation, a short application (40 ms) of a high GABA concentration (30 μM), was used. Contrary, α5β3γ2L-GABAA receptors are present extrasynaptically, thus the conditions used were long exposures (6 s) to a low GABA concentration (0.3 μM). The EC75 concentration of THDOC was used, i.e. 100 nM with studies of α1β2γ2L and 200 nM when α5β3γ2L expressing cells were evaluated. With both cell types a pre-exposure with THDOC or THDOC plus 3α-ethynyl-3β-hydroxyandrostan-17-one oxime was used before application of GABA.
(§5) Steroid effects in presence of GABA were normalized to controls in order to avoid the effects of inter- and intracellular variation in the measured parameters, each cell was used as its own control and the area under the curve (AUC) was analyzed.

[2] = biological target: T2, human α1β2γ2L GABAA receptors (Homo sapiens, UniProt P14867+P47870); test: Whole-cell voltage-clamp electrophysiology, HEK-293 cells expressing α1β2γ2L GABAA receptors; assay type: cell-based; conditions: α1β2γ2L expressing cells
T2 construct: expressed in transfected cells; host or cells: HEK-293, permanently transfected
T2 sequence (P14867 28-456): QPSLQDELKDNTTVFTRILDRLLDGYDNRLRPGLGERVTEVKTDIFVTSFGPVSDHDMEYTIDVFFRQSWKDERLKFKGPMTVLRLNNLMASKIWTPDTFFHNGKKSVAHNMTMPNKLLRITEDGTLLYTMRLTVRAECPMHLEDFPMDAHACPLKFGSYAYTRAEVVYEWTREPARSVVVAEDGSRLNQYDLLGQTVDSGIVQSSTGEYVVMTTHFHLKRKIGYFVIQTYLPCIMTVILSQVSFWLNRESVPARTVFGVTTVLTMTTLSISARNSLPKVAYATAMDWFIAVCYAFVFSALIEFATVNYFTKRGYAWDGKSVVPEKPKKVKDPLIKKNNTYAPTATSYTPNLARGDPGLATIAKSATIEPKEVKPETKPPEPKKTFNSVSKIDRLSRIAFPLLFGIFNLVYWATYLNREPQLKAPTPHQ
T2 sequence (P47870 25-512 limits assumed): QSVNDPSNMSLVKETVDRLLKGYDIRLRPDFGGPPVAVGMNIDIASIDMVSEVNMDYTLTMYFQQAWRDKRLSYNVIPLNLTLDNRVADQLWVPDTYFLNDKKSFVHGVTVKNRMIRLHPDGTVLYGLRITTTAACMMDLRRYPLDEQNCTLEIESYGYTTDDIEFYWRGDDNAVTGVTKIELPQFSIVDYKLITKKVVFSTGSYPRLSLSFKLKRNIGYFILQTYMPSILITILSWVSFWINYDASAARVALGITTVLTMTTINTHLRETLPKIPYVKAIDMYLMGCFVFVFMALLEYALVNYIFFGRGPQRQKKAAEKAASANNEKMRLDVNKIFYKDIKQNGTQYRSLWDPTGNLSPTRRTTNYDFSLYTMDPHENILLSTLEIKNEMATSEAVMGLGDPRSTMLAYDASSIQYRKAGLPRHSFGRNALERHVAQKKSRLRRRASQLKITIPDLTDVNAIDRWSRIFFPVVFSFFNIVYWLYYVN
T2 sequence (P18507 40-475 partner): as the sequence (P18507 40-475 partner) above
Experimental: as §1, §2, §3, §4, §5

C[C@]12CC[C@@H](O)C[C@H]1CC[C@@H]1[C@@H]2CC[C@]2(C)[C@@H](C(=O)CO)CC[C@@H]12 [THDOC, tetrahydrodeoxycorticosterone, reference compound]
EC75 concentration of THDOC [1]: 200 nM | EC75 concentration of THDOC [2]: 100 nM
